Test results published in article PMC8727363, “Therapeutic Effect of Novel Cyanopyrrolidine-Based Prolyl Oligopeptidase Inhibitors in Rat Models of Amnesia” (Frontiers in Chemistry, 2021).
“And” between values parts separate entries of the source, which are not always exact repeats. Equal entries are not always repeated.

How the values were obtained:
MES-induced amnesia = MES-induced amnesia of conditioned passive avoidance reflex (CPAR); format: in vivo; conditions: rat; for Antiamnesic activity, MES-induced amnesia, 1 and 2 mg/kg: doses of 1 and 2 mg/kg; for Potency in comparison with piracetam, MES-induced amnesia: vs piracetam 300 mg/kg; for Antiamnesic activity, MES-induced amnesia, 1 mg/kg: comparable with piracetam 300 mg/kg
Protocol: (§1) The development of CPAR was performed on a standard passive avoidance device from Lafayette Instrument Co. (United States). The device consists of a small platform located at a distance of 1 m from the floor, illuminated by a special lamp, and a dark chamber with an electrode floor. During learning, a rat was placed on the small platform in front of the entrance to the dark chamber. Immediately after entering the dark chamber, the rat received a painful stimulation from an electric current of 0.6 mA through the electrode floor lasting 10 s or until the rat ran out of the chamber (learning). […] If the rat entered the dark chamber, the training was repeated. A test for the refiex reproduction was performed after 24 h. In this case, the rat was placed on a lighted area, and step-through latency time (STL) of its entry into the dark chamber was recorded. The observation time was 3 min. The criterion for refiex reproduction was considered to be the STL of entry into the dark box.
In the second model, effects of POP inhibitors on MES-induced amnesia were studied. The series included fifteen groups of animals (110 rats). Rats in the negative control group (group 1, n = 8) received 2 ml of vehicle (physiological saline solution containing 1% Tween 80) i.p. 30 min before the CPAR learning. Rats in the positive control group (group 2, n = 7) received MES just after CPAR learning. MES was induced using an electric shock generator from Harvard Apparatus (Holliston, MA, United States) consisting of a current (250 V, 120–122 20 mA, delivered for 0.1 s) by way of corneal electrodes. Rats of groups 3–14 received a single injection of POP inhibitor at doses of 0.5, 1, and 2 mg/kg, including BocTrpPrdN (groups 3–5, n = 7 in each), BocGlyPrdN (groups 6–8, n = 6 in each), CbzMetPrdN (groups 9–11, n = 8 in each), and CbzGlnPrdN (groups 12–14, n = 8 in each) 40 min prior to the CPAR learning (three groups of animals for each inhibitor) with following MES just after CPAR learning. Rats in group 15 (n = 8) received piracetam (300 mg/kg, i.p.) 50 min before the CPAR learning and MES just after CPAR learning.

[1] = biological target: T1, POP isolated from rat brain (Rattus norvegicus, UniProt O70196); test: POP inhibition assay (release of AMC from Cbz-Ala-Pro-AMC); format: biochemical; conditions: substrate Cbz-Ala-Pro-AMC 20 μM, 30 min at 37°C, pH 7.5, read-out: IC50, POP inhibitory activity
T1 construct: the resulting POP preparation was a homogeneous monomer with molecular weight of 75 kDa; from tissue; host or cells: rat brain
T1 sequence (O70196 1-710): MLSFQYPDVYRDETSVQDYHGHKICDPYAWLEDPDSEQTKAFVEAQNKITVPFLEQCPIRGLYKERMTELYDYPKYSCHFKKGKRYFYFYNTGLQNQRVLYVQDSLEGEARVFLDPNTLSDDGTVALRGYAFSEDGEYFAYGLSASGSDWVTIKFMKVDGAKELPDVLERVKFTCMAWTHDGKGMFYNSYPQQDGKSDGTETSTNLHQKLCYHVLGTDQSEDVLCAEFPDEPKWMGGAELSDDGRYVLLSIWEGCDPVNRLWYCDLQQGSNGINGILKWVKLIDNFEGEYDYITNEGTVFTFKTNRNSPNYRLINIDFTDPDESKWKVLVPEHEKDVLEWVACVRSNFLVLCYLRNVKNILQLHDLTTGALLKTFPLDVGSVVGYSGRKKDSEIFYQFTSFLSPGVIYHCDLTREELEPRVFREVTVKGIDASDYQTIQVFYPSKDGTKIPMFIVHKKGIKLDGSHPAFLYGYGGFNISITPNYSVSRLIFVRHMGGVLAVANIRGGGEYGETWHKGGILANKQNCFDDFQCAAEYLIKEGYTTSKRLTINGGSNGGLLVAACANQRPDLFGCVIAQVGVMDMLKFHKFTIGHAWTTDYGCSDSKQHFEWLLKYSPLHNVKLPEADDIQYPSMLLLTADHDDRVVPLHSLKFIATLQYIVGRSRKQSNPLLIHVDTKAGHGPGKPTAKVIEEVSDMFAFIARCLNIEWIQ
Protocol: Briefly, rat brain homogenate was precipitated with ammonium sulfate, followed by ion exchange chromatography on DEAE-Sephadex A-50, gel chromatography on Sephadex G-75, and high-performance liquid chromatography on a MonoQ column using FPLC. […] Purified POP was concentrated by ultrafiltration and stored at −80°C.
The reaction was initiated by addition of the substrate (20 μM) in a final reaction volume of 2 ml. The incubation mixture consisted of 50 μl of the enzyme preparation in 20 mM Tris-HCl buffer (pH 7.5) with 1 mM EDTA, 1 mM dithiothreitol, and 0.1% NP–40; 50 μl of 1 mg/ml substrate solution in DMSO; and 1.9 ml of Tris-HCl buffer. […] After a 30-min incubation at 37°C, the reaction was stopped by addition of 1 ml of acetate buffer (pH 4.0). The AMC concentration was determined on an LS–5B spectrofluorometer (Perkin–Elmer, United States) with excitation and emission wavelengths of 380 and 460 nm, respectively.

[2] = tested on: scopolamine-induced amnesia; test: Scopolamine-induced amnesia of conditioned passive avoidance reflex (CPAR); format: in vivo, rat; conditions: for CPAR retention time, scopolamine-induced amnesia: doses 1 and 2 mg/kg i.p., vs scopolamine only
Protocol: as §1
Experiments were performed using two rat models of amnesia. In the first model, effects of POP inhibitors on scopolamine-induced amnesia were studied. The series included eighteen groups of animals (137 rats). Rats in the negative control group (group 1, n = 8) received 2 ml of vehicle (physiological saline solution containing 1% Tween 80) i.p. 40 min before the CPAR learning. Rats in the non-treated group (group 2, n = 7) received scopolamine (1 mg/kg, i.p. in 2 ml of vehicle) 20 min before the CPAR learning. […].

[3] = tested on: MPTP-induced Parkinsonian syndrome; design: method as in earlier work; conditions: ref Khlebnikova et al., 2009b, Krupina et al., Khlebnikova et al., 2012, 2013a, 2013b, Kalinina et al., 2019; cited from earlier work
[4] = Tissue concentration of CbzMetPrdN in the brain after single i.p. administration; format: in vivo; conditions: single i.p. 20 mg/kg
Protocol: (§2) The total drug concentrations for CbzMetPrdN and POP activity in the brain were determined as a function of time at 0, 20, 40, 60, 80, and 120 min (n = 3 for each time-point) after a single 20 mg/kg intraperitoneal (i.p.) administration of CbzMetPrdN. The test animals were sacrificed, and their brains were harvested and immediately homogenized in phosphate buffer saline.
For measurement of the brain tissue concentration of CbzMetPrdN, the homogenate was mixed with an equal volume of methanol and centrifuged at 3,000 g for 10 min. The supernatant was concentrated to 2 ml, followed by solid phase extraction in a Retain AX SPE cartridge (Thermo Fisher Scientific). The cartridge was washed with 1 ml of 5% ammonia solution and then with 1 ml of methanol. The sample was eluted with 1 ml of 2% trifluoroacetic acid in methanol and analyzed using a Gilson 41 HPLC system (Gilson, United Kingdom) with a 125 × 4 mm Nucleosil C18 column (Macherey-Nagel). The column was washed for 3 min with 4 mM hexanesulfonate in water (pH 3.5), followed by a 0–100% gradient of 4 mM hexanesulfonate in acetonitrile:water (50:50) % (v/v) over 10 min. The concentration of the POP inhibitor is expressed in ng of CbzMetPrdN per mg of brain protein.

POP = biological target: T2, POP (Rattus norvegicus, UniProt O70196); test: POP activity in brain tissue homogenate after single i.p. administration; format: in vivo
T2 construct: from tissue; host or cells: brain homogenate of rats dosed i.p. with CbzMetPrdN
T2 sequence (O70196 1-710): T1 sequence (O70196 1-710)
Protocol: as §2
POP activity in the brain tissue homogenate was measured using Cbz-Ala-Pro-AMC, as described above, and is presented as nmole AMC released/min/mg of brain protein. Protein concentrations of the supernatants were determined with a Bio-Rad protein assay kit.

[5] = tested on: dipeptidyl peptidase IV (DPP-4); design: method as in Ivanova et al., 2020; conditions: ref Ivanova et al., 2020; cited from earlier work
[6] = design: method as in Jalkanen et al., 2011a; Jalkanen et al., 2014; conditions: mouse and rat, ref Jalkanen et al., 2011a, 2014; cited from earlier work

Compound: CC(C)(C)OC(=O)NCC(=O)N1CCC[C@H]1C#N [BocGlyPrdN, N-(tert-butoxycarbonyl)glycyl-(2S)-pyrrolidine-2-carbonitrile]
- Antiamnesic activity, MES-induced amnesia, 1 and 2 mg/kg (MES-induced amnesia): exhibited antiamnesic activity
- Potency in comparison with piracetam, MES-induced amnesia (MES-induced amnesia): less potent
- IC50 [1]: 12 ± 3 nM
- CPAR retention time, scopolamine-induced amnesia ([2]; rat, scopolamine 1 mg/kg): significantly prolonged CPAR retention time

Compound: CC(C)(C)OC(=O)N[C@@H](Cc1c[nH]c2ccccc12)C(=O)N1CCC[C@H]1C#N [BocTrpPrdN, N-(tert-butoxycarbonyl)-L-tryptophanyl-(2S)-pyrrolidine-2-carbonitrile]
- Antiamnesic activity, MES-induced amnesia, 1 and 2 mg/kg (MES-induced amnesia): exhibited antiamnesic activity
- Potency in comparison with piracetam, MES-induced amnesia (MES-induced amnesia): less potent
- IC50 [1]: 9 ± 0.9 nM
- Antiamnesic activity, scopolamine-induced amnesia (overall) ([2]; rat, 0.5-2 mg/kg i.p., scopolamine 1 mg/kg): clear tendency toward antiamnesic activity

Compound: C[C@H](NC(=O)OCc1ccccc1)C(=O)N1CCC[C@H]1C#N [CbzAlaPrdN, N-benzoxycarbonyl-L-alanyl-(2S)-pyrrolidine-2-carbonitrile]
- Antiamnesic effect, scopolamine-induced amnesia, all doses ([2]; rat, 0.5, 1 and 2 mg/kg i.p., scopolamine 1 mg/kg): not effective

Compound: N#C[C@@H]1CCCN1C(=O)[C@H](CCC(N)=O)NC(=O)OCc1ccccc1 [CbzGlnPrdN, N-Benzyloxycarbonyl-L-glutaminyl-(2S)-pyrrolidine-2-carbonitrile]
- Antiamnesic activity, MES-induced amnesia, 1 mg/kg (MES-induced amnesia): potent antiamnesic activity
- IC50 [1]: ~2 nM and 2 nM
- CPAR retention time, scopolamine-induced amnesia ([2]; rat, scopolamine 1 mg/kg): significantly prolonged CPAR retention time

Compound: CSCC[C@H](NC(=O)OCc1ccccc1)C(=O)N1CCC[C@H]1C#N [CbzMetPrdN, N-Benzyloxycarbonyl-L-methionyl-(2S)-pyrrolidine-2-carbonitrile]
- Effect in preclinical model of Parkinsonian syndrome (MPTP) [3]: exhibited neuroprotective activity and abolished depressive symptoms
- Antiamnesic activity, MES-induced amnesia, 1 mg/kg (MES-induced amnesia): potent antiamnesic activity
- Time point with maximal concentration in the brain ([4]; rat): 60 min
- Accumulation in rat brain tissue ([4]; 0-120 min): accumulated in the brain
- Inhibition of POP in the brain (POP; administered intraperitoneally): effectively inhibits POP in the brain
- Time of maximal inhibition of brain POP activity (POP; single i.p. 20 mg/kg): 60 min
- Inhibition of DPP-4 activity [5]: inhibited activity
- IC50 [1]: 2.1 ± 0.6 nM
- CPAR retention time, scopolamine-induced amnesia ([2]; rat, scopolamine 1 mg/kg): significantly prolonged CPAR retention time

Compound: N#C[C@@H]1CCCN1C(=O)[C@@H]1CCCN1C(=O)CCCc1ccccc1 [KYP-2047, (2S)-1-[[(2S)-1-(1-oxo-4-phenylbutyl)-2-pyrrolidinyl]carbonyl]-2-pyrrolidinecarbonitrile]
- Brain penetration [6]: penetrates mouse and rat brains

Compound: CN1[C@@H]2C[C@@H](OC(=O)[C@H](CO)c3ccccc3)C[C@H]1[C@@H]1O[C@@H]12 [scopolamine, reference compound]
- Latency period (STL) in CPAR test ([2]; rat, scopolamine 1 mg/kg i.p. 20 min before learning, vehicle-treated rats 145.0 ± 21.7 s): 23.5 ± 9.6 s
